From patent publication US10769242B2, “System and method for data mining very large drugs and clinical effects databases” (Cincinnati Children's Hospital Medical Center, priority 2015, dated 2020)

Test: AERSMine mining of FAERS reports: lithium toxicity and inversely correlated drugs
Set-up: species or system patients
Conditions: for safety signal IC for lithium-specific neurological adverse events: human
Text: To establish lithium-adverse event correlation, AERSMine uses multiple quantitative elements such as AE incidence rate, multiple hypothesis testing, relative risk, and safety signals. For this example, the following analytical parameters were used: total reports per adverse event were set to ≥2,000; adverse event and lithium intake co-reported in at least 10 reports; RR set to ≥2; FDR-corrected p-value of <0.001 (Benjamini and Hochberg); and safety signal (i.e., IC) set to >0.
Additionally, by excluding patients with comorbidities (e.g., diabetes) reported to worsen mental health and exacerbate neurological symptoms from the analysis, allows AERSMine to accurately represent potentially lithium-specific adverse events (e.g., aggression, irritability, anger, suicidal tendencies, tremors, and other neurological symptoms, movement disorders, personality changes, etc.). The inventors then sought to determine if AERSMine could identify drugs that are inversely correlated with these adverse events, which may indicate a potential reduction in risk and represent a novel combinatorial strategy to mitigate lithium-related toxicity. […] (no concomitant use with lithium, IC<0, i.e., number of observed events<expected, FDR-corrected p<0.001). To understand how the risks differ across these therapeutic agents, AERSMine additionally allows comparative analyses across multiple drugs or therapeutic classes, which show the differential effects across the inversely correlated drugs.

Compound: [Li] [lithium]
- number of adverse events significantly correlated with lithium use (of 4,180 adverse events in 22,575 patient reports, RR>=2, FDR p<0.001, IC>0): 327 adverse events

Compound: CCCCc1nc(Cl)c(CO)n1Cc1ccc(-c2ccccc2-c2nn[nH]n2)cc1 [losartan]
- safety signal IC for lithium-specific neurological adverse events: < 0

Compound: CCCCC(=O)N(Cc1ccc(-c2ccccc2-c2nnn[nH]2)cc1)[C@H](C(=O)O)C(C)C [valsartan]
- safety signal IC for lithium-specific neurological adverse events: < 0
